Test results published in ChEMBL document CHEMBL4270617, “Design, synthesis, antimicrobial, antiquorum-sensing and antitumor evaluation of new series of pyrazolopyridine derivatives” (Eur J Med Chem, 2018).

Key:
MCF7 = assay: Antitumor activity against human MCF7 cells assessed as inhibition of cell proliferation after 48 hrs by MTT assay; type: functional, cell-based; conditions: MCF7, 48 h
[1] = Displacement of methyl green from DNA (unknown origin) incubated in dark for 24 hrs
Staphylococcus aureus = assay: Antibacterial activity against Staphylococcus aureus ATCC 29213 after 24 hrs by two-fold serial dilution method; type: functional; conditions: ATCC 29213, 24 h
Candida albicans = assay: Antifungal activity against Candida albicans after 48 hrs by two-fold serial dilution method; type: functional
Escherichia coli = assay: Antibacterial activity against Escherichia coli ATCC 12435 after 24 hrs by two-fold serial dilution method; type: functional; conditions: ATCC 12435, 24 h
Aspergillus flavus = assay: Antifungal activity against Aspergillus flavus 3375 after 48 hrs by two-fold serial dilution method; type: functional; conditions: Aspergillus flavus, 3375, 48 h
Bacillus cereus = assay: Antibacterial activity against Bacillus cereus UW 85 after 24 hrs by two-fold serial dilution method; type: functional; conditions: UW 85, 24 h
Aspergillus fumigatus = assay: Antifungal activity against Aspergillus fumigatus 293 after 48 hrs by two-fold serial dilution method; type: functional; conditions: Aspergillus fumigatus, 293, 48 h
Pseudomonas aeruginosa = assay: Antibacterial activity against Pseudomonas aeruginosa PAO1 after 24 hrs by two-fold serial dilution method; type: functional; conditions: PAO1, 24 h
HepG2 = assay: Antitumor activity against human HepG2 cells assessed as inhibition of cell proliferation after 48 hrs by MTT assay; type: functional, cell-based; conditions: HepG2, 48 h
[2] = tested on: Chromobacterium violaceum; assay: Inhibition of quorum sensing system in Chromobacterium violaceum ATCC 12472 assessed as diameter of violacein pigment inhibition at 5 mg/ml after 48 hrs
HeLa = assay: Antitumor activity against human HeLa cells assessed as inhibition of cell proliferation after 48 hrs by MTT assay; type: functional, cell-based; conditions: read-out: IC50

Row | Compound | IC50 (MCF7) [µM] | IC50 [1] [µM] | MIC (Staphylococcus aureus) | MIC (Candida albicans) | MIC (Escherichia coli) | MIC (Aspergillus flavus) | MIC (Bacillus cereus) | MIC (Aspergillus fumigatus) | MIC (Pseudomonas aeruginosa) | IC50 (HepG2) [µM] | diameter of the inhibition zone (DIZ) [2] [mm] | IC50 (HeLa) [µM]
1 | CCOC(=O)C1=C(N/C=N/c2ccccn2)Nc2[nH]nc(C)c2C1c1ccc(N(C)C)cc1 (centres undefined) | 37.3 | 28 | 70.1 µM | 561 µM | 281 µM | 281 µM | 70.1 µM | 281 µM | 281 µM | 26.2 | < 2 | 29.2
2 | CC1(C)S[C@@H]2[C@H](NC(=O)[C@H](N)c3ccccc3)C(=O)N2[C@H]1C(=O)O [AMPICILLIN] |  |  | 716 µM |  | 28.6 µM |  | 1430 µM |  |  |  |  | 
3 | CCOC(=O)C1=C(N/N=C(/Cl)C#N)Nc2[nH]nc(C)c2C1c1ccc(N(C)C)cc1 (centres undefined) | 23.2 |  | > 200 µg/mL | 4670 µM | 2340 µM | 2340 µM | 2340 µM | 4670 µM | 1170 µM | 23.6 | < 2 | 26.2
4 | OC(Cn1cncn1)(Cn1cncn1)c1ccc(F)cc1F [FLUCONAZOLE] |  |  |  | 6530 µM | > 200 µg/mL | > 200 µg/mL | > 200 µg/mL | > 200 µg/mL | > 200 µg/mL |  |  | 
5 | COc1ccc(C2C(C#N)=C(NC(=O)/C=C/C(=O)O)Nc3[nH]nc(-c4ccccc4)c32)cc1 (centres undefined) |  | 39.4 to 82.8 |  |  |  |  |  |  |  |  |  | 
6 | CCOC(=O)C1=C(N/C=N/c2ccc([N+](=O)[O-])cc2)Nc2[nH]nc(C)c2C1c1ccc(N(C)C)cc1 (centres undefined) | 58.6 | 59.6 | 255 µM | 2040 µM | 128 µM | 4090 µM | 1050 µM | 4090 µM | 128 µM | 50.9 | 7 | 57.8
7 | CCOC(=O)C1=C(N/N=C(/Br)c2ccccc2)Nc2[nH]nc(C)c2C1c1ccc(N(C)C)cc1 (centres undefined) | 78.4 |  | 955 µM | 1910 µM | 955 µM | 1910 µM | 955 µM | 1910 µM | 478 µM | 72 | 11 | 75.7
8 | CCOC(=O)C1=C(N/N=C(/C(C)=O)C(=O)OCC)Nc2[nH]nc(C)c2C1c1ccc(N(C)C)cc1 (centres undefined) | > 100 | 68.2 | 2070 µM | 4140 µM | 518 µM | 2070 µM | 518 µM | 2070 µM | 518 µM | > 100 | < 2 | > 100
9 | CCOC(=O)C1=C(N/N=C(/C(=O)Br)c2ccc(Cl)cc2)Nc2[nH]nc(C)c2C1c1ccc(N(C)C)cc1 (centres undefined) | 46.3 | 80.7 | 427 µM | 3410 µM | 1710 µM | 3410 µM | 427 µM | 3410 µM | 1710 µM | 50.2 | < 2 | 49.3
10 | CCOC(=O)C1=C(N/N=C(/C#N)C(=O)OCC)Nc2[nH]nc(C)c2C1c1ccc(N(C)C)cc1 (centres undefined) | 35.6 |  | 2150 µM | 537 µM | 1070 µM | 2150 µM | 1070 µM | 2150 µM | 1070 µM | 46.4 | < 2 | 39.2
11 | COc1ccc(C2C(C#N)=C(/N=C/OC(C)=O)Nc3[nH]nc(-c4ccccc4)c32)cc1 (centres undefined) |  | 39.4 to 82.8 |  |  |  |  |  |  |  |  |  | 
12 | CCOC(=O)C1=C(N/C=N/c2ccc(C)cc2)Nc2[nH]nc(C)c2C1c1ccc(N(C)C)cc1 (centres undefined) | 50.5 | 76.4 | 136 µM | > 200 µg/mL | 2180 µM | 2180 µM | 136 µM | 2180 µM | 2180 µM | 44.4 | < 2 | 43.2
